Test results taken from paper PMC10794144, “A novel antibiotic class targeting the lipopolysaccharide transporter” (Nature, 2024).
Values after ≈ are worked out from the molar mass of the structure shown. Read-outs that look alike come from different tables or passages of the source.

System: A. baumannii
Assay: MIC, broth microdilution in CAMHB supplemented with human serum, read at 100% growth inhibition
Format: cell-based, Acinetobacter baumannii
Description: MIC determinations were performed using the broth microdilution method and in line with CLSI guidelines M07 and M100 (refs. [37],[38]). Bacterial inocula were prepared by diluting a 0.5 McFarland suspension in CAMHB or lysogeny broth (LB) specifically for A. baylyi isolates. […] MIC values of all of the tested antibiotics were read as the lowest compound concentration inhibiting bacterial growth by naked eye or beyond which the OD600 ceased to decrease.

SMILES: CN1C(=O)[C@H](CCCCN)NC(=O)[C@H](CCCN)NCc2cccnc2Sc2cccc(-c3ccc(C(=O)O)cc3)c2CNC(=O)[C@@H]1Cc1c[nH]c2ccccc12 [zosurabalpin]
- MIC range (129 clinical isolates): ≤0.016 to 4 µg/mL
- MIC (ACC01073, CAMHB + 20% HS): 2 µg/mL
- MIC (Acinetobacter baumannii, ACC00445, CAMHB + 20% HS, read-out: MIC): 0.25 µg/mL
- MIC (Acinetobacter baumannii, ACC00535, CAMHB + 20% HS, read-out: MIC): 0.12 µg/mL
- MIC (Acinetobacter baumannii, ACC01073, CAMHB + 20% HS, read-out: MIC): 2 µg/mL
- MIC (Acinetobacter baumannii, ACC01077, CAMHB + 20% HS, read-out: MIC): 0.25 µg/mL
- MIC (Acinetobacter baumannii, ACC01085 / AR0307, CAMHB + 20% HS, read-out: MIC): 0.5 µg/mL
- MIC (Acinetobacter baumannii, ATCC17978, ATCC 17978, CAMHB + 20% HS, read-out: MIC): 0.12 µg/mL
- MIC (Acinetobacter baumannii, ATCC19606, ATCC 19606, CAMHB + 20% HS, read-out: MIC): 0.5 µg/mL
- MIC (Acinetobacter baumannii, ATCCBAA747, ATCC BAA-747, CAMHB + 20% HS, read-out: MIC): ≤ 0.06 µg/mL
- MIC (Acinetobacter baumannii, ROB08701, 129-isolate panel, 20% HS, read-out: MIC): 0.06 µg/mL (≈ 0.0759 µM)
- MIC (Acinetobacter baumannii, ROB08701, CAMHB + 20% HS, read-out: MIC): ≤ 0.06 µg/mL
- MIC (Acinetobacter baumannii, ROB08702, 129-isolate panel, 20% HS, read-out: MIC): 0.125 µg/mL (≈ 0.158 µM)
- MIC (Acinetobacter baumannii, ROB08702, CAMHB + 20% HS, read-out: MIC): 0.12 µg/mL
- MIC (Acinetobacter baumannii, ROB08703, 129-isolate panel, 20% HS, read-out: MIC): 0.5 µg/mL (≈ 0.632 µM)
- MIC (Acinetobacter baumannii, ROB08703, CAMHB + 20% HS, read-out: MIC): 2 µg/mL
- MIC (Acinetobacter baumannii, ROB08704, 129-isolate panel, 20% HS, read-out: MIC): 0.25 µg/mL (≈ 0.316 µM)
- MIC (Acinetobacter baumannii, ROB08704, CAMHB + 20% HS, read-out: MIC): 0.25 µg/mL
- MIC (Acinetobacter baumannii, ROB08705, 129-isolate panel, 20% HS, read-out: MIC): 0.06 µg/mL (≈ 0.0759 µM)
- MIC (Acinetobacter baumannii, ROB08705, CAMHB + 20% HS, read-out: MIC): 0.25 µg/mL
- MIC (Acinetobacter baumannii, ROB08706, 129-isolate panel, 20% HS, read-out: MIC): 0.125 µg/mL (≈ 0.158 µM)
- MIC (Acinetobacter baumannii, ROB08706, CAMHB + 20% HS, read-out: MIC): 1 µg/mL
- MIC (Acinetobacter baumannii, ROB08707, 129-isolate panel, 20% HS, read-out: MIC): 0.03 µg/mL (≈ 0.0379 µM)
- MIC (Acinetobacter baumannii, ROB08707, CAMHB + 20% HS, read-out: MIC): ≤ 0.06 µg/mL
- MIC (Acinetobacter baumannii, ROB08708, 129-isolate panel, 20% HS, read-out: MIC): 0.125 µg/mL (≈ 0.158 µM)
- MIC (Acinetobacter baumannii, ROB08708, CAMHB + 20% HS, read-out: MIC): 0.25 µg/mL
- MIC (Acinetobacter baumannii, ROB08709, 129-isolate panel, 20% HS, read-out: MIC): 0.03 µg/mL (≈ 0.0379 µM)
- MIC (Acinetobacter baumannii, ROB08709, CAMHB + 20% HS, read-out: MIC): ≤ 0.06 µg/mL
- MIC (Acinetobacter baumannii, ROB08710, 129-isolate panel, 20% HS, read-out: MIC): 0.125 µg/mL (≈ 0.158 µM)
- MIC (Acinetobacter baumannii, ROB08710, CAMHB + 20% HS, read-out: MIC): 0.12 µg/mL
- MIC (Acinetobacter baumannii, ROB08961 (LpxM NS), 20% HS, read-out: MIC): 4 µg/mL (≈ 5.06 µM)
- MIC (Acinetobacter baumannii, ROB08979 (LptF R322L), 20% HS, read-out: MIC): 8 µg/mL (≈ 10.1 µM)
- MIC (Acinetobacter baumannii, ROB08982 (lpxM ISAba1), 20% HS, read-out: MIC): 4 µg/mL (≈ 5.06 µM)
- MIC (Acinetobacter baumannii, ROB08985 (LpxM NS), 20% HS, read-out: MIC): 4 µg/mL (≈ 5.06 µM)
- MIC (Acinetobacter baumannii, ROB08997 (LptF I323K), 20% HS, read-out: MIC): 16 µg/mL (≈ 20.2 µM)
- MIC (Acinetobacter baumannii, ROB08998 (AdeR A91V), 20% HS, read-out: MIC): 8 µg/mL (≈ 10.1 µM)
- MIC (Acinetobacter baumannii, ROB09000 (lpxM ISAba1), 20% HS, read-out: MIC): 8 µg/mL (≈ 10.1 µM)
- MIC (Acinetobacter baumannii, ROB21530 (LptF W271S), 20% HS, read-out: MIC): 16 µg/mL (≈ 20.2 µM)
- MIC (Acinetobacter baumannii, ROB21531 (LptG G40D), 20% HS, read-out: MIC): 8 µg/mL (≈ 10.1 µM)
- MIC (Acinetobacter baumannii, ROB21532 (LptF R322C), 20% HS, read-out: MIC): 64 µg/mL (≈ 80.9 µM)
- MIC (Acinetobacter baumannii, ROB21533 (LptF I317L), 20% HS, read-out: MIC): 64 µg/mL (≈ 80.9 µM)
- MIC (Acinetobacter baumannii, ROB23370 (adeS ISAba1), 20% HS, read-out: MIC): 4 µg/mL (≈ 5.06 µM)
- MIC (Acinetobacter baumannii, ROB23371 (AdeS R152K), 20% HS, read-out: MIC): 4 µg/mL (≈ 5.06 µM)
- MIC (Acinetobacter baumannii, ROB23373 (AdeS G318S), 20% HS, read-out: MIC): 2 µg/mL (≈ 2.53 µM)
- MIC (Acinetobacter baumannii, ROB23377 (AdeS R108S), 20% HS, read-out: MIC): 1 µg/mL (≈ 1.26 µM)
- MIC (Acinetobacter baumannii, ROB23380 (adeS ISAba1), 20% HS, read-out: MIC): 8 µg/mL (≈ 10.1 µM)
- MIC (Acinetobacter baumannii, isolate 1061067, 20% HS, read-out: MIC): 0.25 µg/mL (≈ 0.316 µM)
- MIC (Acinetobacter baumannii, isolate 1061145, 20% HS, read-out: MIC): 0.125 µg/mL (≈ 0.158 µM)
- MIC (Acinetobacter baumannii, isolate 1065279, 20% HS, read-out: MIC): 0.25 µg/mL (≈ 0.316 µM)
- MIC (Acinetobacter baumannii, isolate 1065391, 20% HS, read-out: MIC): 0.25 µg/mL (≈ 0.316 µM)
- MIC (Acinetobacter baumannii, isolate 1065549, 20% HS, read-out: MIC): 0.06 µg/mL (≈ 0.0759 µM)
- MIC (Acinetobacter baumannii, isolate 1069554, 20% HS, read-out: MIC): 0.06 µg/mL (≈ 0.0759 µM)
- MIC (Acinetobacter baumannii, isolate 1072184, 20% HS, read-out: MIC): 0.25 µg/mL (≈ 0.316 µM)
- MIC (Acinetobacter baumannii, isolate 1089062, 20% HS, read-out: MIC): 0.125 µg/mL (≈ 0.158 µM)
- MIC (Acinetobacter baumannii, isolate 1089975, 20% HS, read-out: MIC): 0.125 µg/mL (≈ 0.158 µM)
